Data: patent US10308617B2, “Triazole benzamide derivatives and the compositions and methods of treatment regarding the same” (An2H Discovery Limited, priority 2016, dated 2019)

System: subcutaneous Calu-6 (lung cancer) xenograft
Assay: In Vivo Cancer Xenograft Assay, Calu-6
Parameters: species or system nude mice
Details: 5 or 10 mg/kg daily IP
Description: Compound F was evaluated for in vivo therapeutic efficacy in the treatment of subcutaneous HCT-116 (colon cancer) and Calu-6 (lung cancer) xenograft models in nude mice.
Each mouse was inoculated subcutaneously at the flank region with either HCT-116 or Calu-6 tumor cells ([…]) in 0.1 ml of 1×PBS mixed with Matrigel (1:1) for tumor development and xenotransplantation.
Twenty (20) animals with approx […] tumors were selected for HCT-116 follow up experiment and randomly placed into Groups 1, 2, 3, and 4, wherein Group 1 was for mice administered with a vehicle negative control; Group 2 was positive control of Mice treated with Bevacizumab at 5 mg/kg every three days; Group 3 was mice treated with 5 mg/kg of Compound f daily for up to 20 days; and Group 4 was mice treated with 10 mg/kg of Compound F daily for up to 20 days. The vehicle with or without drug was administered to the mouse by intraperitoneal injection. […]
After tumor cells inoculation, the animals were checked daily for morbidity and mortality. […] Death and observed clinical signs were recorded. Tumor volumes were measured every three days in two dimensions using an electronic caliper, and the volume data are expressed in mm^3 using the formula: V=0.5 a×b2 where a and b are the long and short diameters of the tumor, respectively. Tumor volume average was then recorded for each day for groups 1-4 until day 26. […]

## Cc1ccccc1C(=O)Nc1nc(NC(=O)c2ccccc2C)n(-c2ccccc2)n1 [Compound F, 2-methyl-N-[5-[(2-methylbenzoyl)amino]-1-phenyl-1,2,4-triazol-3-yl]benzamide]
  delay of subcutaneous Calu-6 tumor growth: effective of delaying growth
